The text below walks through data of BindingDB's records for patent US20240072809 (Avilar Therapeutics, 2024).

pKd: −log10 of the molar value.

In the experiment the target is T1, Asialoglycoprotein receptor 1 (Homo sapiens, UniProt P07306).
T1 sequence (P07306 whole entry): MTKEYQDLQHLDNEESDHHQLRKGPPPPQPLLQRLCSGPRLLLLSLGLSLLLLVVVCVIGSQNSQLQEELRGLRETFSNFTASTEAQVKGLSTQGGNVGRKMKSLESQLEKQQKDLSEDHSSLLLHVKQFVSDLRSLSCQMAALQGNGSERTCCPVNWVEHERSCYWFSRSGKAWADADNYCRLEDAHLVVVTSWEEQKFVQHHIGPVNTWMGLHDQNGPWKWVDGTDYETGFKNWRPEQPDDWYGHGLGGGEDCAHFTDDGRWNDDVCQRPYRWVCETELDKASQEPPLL
Nature of the experiment: ASGPR Measured Using Surface Plasmon Resonance (SPR). How it is done:
Recombinant ASGPR protein is first biotinylated using Maleimide-PEG2-biotin reagent (Pierce, 19-fold molar excess) in phosphate-buffered saline (PBS) solution overnight at 4° C. Excess amount of biotin in the reaction mixture is removed by Zeba desalting columns (Thermo). Biotinylation is confirmed by mass spectroscopic analysis of ASGPR. Biotinylated ASGPR is then immobilized on SA sensor chips (GE Healthcare) with an immobilization level ranging from 1500-3000 resonance units (RU). The running buffer is 50 mM Tris, pH7.5, 150 mM NaCl, 50 mM CaCl2), 0.01% P20, 3% DMSO. […] The compounds are diluted 3 folds with total 8 concentration points. Solutions containing serially diluted compounds are injected at a flow rate of 50 μL/min for 60 sec followed by a 180 sec dissociation phase for each concentration. Data is processed using the analysis software in Biacore 8K to perform background subtraction, double referencing and solvent correction.

The pKd is −log10 of the Kd, conventionally taken in molar units. The compound `OC[C@H]1OC[C@H](Nc2nc(Cl)cs2)[C@@H](O)[C@H]1O` [US20240072809, Compound A99] had a pKd of less than 3.00.

Take `CO[C@@H]1O[C@H](CO)[C@H](O)[C@H](O)[C@H]1Nc1ncns1` [US20240072809, Compound A110]: the negative logarithm of the Kd (pKd) was more than 4.00.

Take `OC[C@H]1OC[C@@H](Nc2ncns2)[C@@H](O)[C@H]1O` [US20240072809, Compound A147]: the negative logarithm of the Kd (pKd) was more than 4.00.

For `OC[C@H]1OC[C@@H](Nc2nc(Cl)cs2)[C@@H](O)[C@H]1O` [US20240072809, Compound A148], the pKd is less than 4.70.

As for `OCCC[C@@H]1CO[C@H](CO)[C@H](O)[C@@H]1O` [US20240072809, Compound A162], the pKd was less than 3.00.

In the case of `OC[C@H]1OC[C@H](Nc2nc(-c3ccncc3)ns2)[C@@H](O)[C@H]1O` [US20240072809, Compound A319], the pKd was more than 4.00.
